# Measurements published in US6603046B1, “Bis-aromatic a,β-unsaturated ketones” (Lica Pharmaceuticals A/S, priority 1992, dated 2003).
# Read-outs that look alike come from different tables or passages of the source.
# Assays:
# [1] = system: chloroquine resistant P. falciparum DD2 strain; experiment: In vitro growth of P. falciparum DD2, 3H-hypoxanthine uptake (Example 15); format: cell-based, Plasmodium falciparum; details: title: percentage inhibition of 3H-hypoxanthine uptake
# P. yoelii strain YM = P. yoelii strain YM infection in mice, parasitemia and mortality (Example 16); format: in vivo, BALB/c mice; details: Table 16.11; for % parasitemia (mean ± SEM): 3 h after infection, D + 1 to D + 5
# L. major promastigotes = L. major promastigotes from 4-days cultures, 3H-thymidine uptake (Examples 5, 14); format: cell-based, Leishmania major; details: Leishmania major, read-out: percentage inhibition of promastigotes (upper figure); for inhibition at 0.5 µg/mL: 0.5 μg/ml; for inhibition at 1 µg/mL: 1 μg/ml; for inhibition at 5 µg/mL: 5 μg/ml
# Protocol: Parasite cultures. The same parasite culture as described in Example 4. Promastigotes were harvested on day 4 of the culture and used for the parasiticidal assay.
# Effect on promastigotes. […] Following incubation, […] of ^3H-thymidine was added to each well and further incubated for 18 hrs. Promastigotes were then harvested on filter paper by means of a cell harvester (Skatron, Lierbyen, Norway), extensively washed with distilled water and counted in a scintillation counter (Minaxi Ti-Carb 4000, United Technologies, Packard, USA).
# L. major promastigotes. The L. major promastigotes were prepared as described in Example 4 and harvested after 4 days.
# human lymphocytes = experiment: Lymphocyte Proliferation Assay, 3H-thymidine incorporation (Example 13); details: Homo sapiens, Lymphocyte
# [2] = read-out: inhibition of lymphocytes (lower figure)
compound,measurement,setting,value
"COc1cccc(/C=C/C(=O)c2ccc(O)cc2)c1OC [2,3-Dimethoxy-4′-hydroxychalcone]",Growth in % of control (mean ± SEM),[1]; 0.5 μg/ml,46 ± 22%
same,Growth in % of control (mean ± SEM),[1]; 1 μg/ml,54.4 ± 22.2%
same,Growth in % of control (mean ± SEM),[1]; 5 μg/ml,53.5 ± 20.1%
same,Growth in % of control (mean ± SEM),[1]; 10 μg/ml,67.6 ± 12.4%
"CCOc1ccc(/C=C/C(=O)c2ccccc2O)c(OCC)c1 [2,4-Diethoxy-2′-hydroxychalcone]",Growth in % of control (mean ± SEM),[1]; 0.5 μg/ml,23.1 ± 8.3%
same,Growth in % of control (mean ± SEM),[1]; 1 μg/ml,20.8 ± 8.8%
same,Growth in % of control (mean ± SEM),[1]; 5 μg/ml,33.7 ± 8.2%
same,Growth in % of control (mean ± SEM),[1]; 10 μg/ml,55.3 ± 7.4%
"CCOc1ccc(/C=C/C(=O)c2ccc(O)cc2)c(OCC)c1 [2,4-Diethoxy-4′-hydroxychalcone]",Growth in % of control (mean ± SEM),[1]; 0.5 μg/ml,14.5 ± 7.2%
same,Growth in % of control (mean ± SEM),[1]; 1 μg/ml,9 ± 7%
same,Growth in % of control (mean ± SEM),[1]; 5 μg/ml,54.2 ± 10.2%
same,Growth in % of control (mean ± SEM),[1]; 10 μg/ml,86.8 ± 7.3%
"C=CCOc1ccc(C(=O)/C=C/c2ccc(OC)cc2OC)cc1 [2,4-Dimethoxy-4′-allyloxychalcone, 2,4-dimethoxy-4′-prop-2-enyloxychalcone]",Growth in % of control (mean ± SEM),[1]; 0.5 μg/ml,29.1 ± 10.8%
same,Growth in % of control (mean ± SEM),[1]; 1 μg/ml,23.6 ± 11.2%
same,Growth in % of control (mean ± SEM),[1]; 5 μg/ml,44.3 ± 10.5%
same,Growth in % of control (mean ± SEM),[1]; 10 μg/ml,75.2 ± 7.8%
same,% parasitemia (mean ± SEM),"P. yoelii strain YM; D + 6, i.p. 20 mg/kg twice daily",0.4 ± 0.2%
same,% parasitemia (mean ± SEM),"P. yoelii strain YM; D + 6, i.p. 30 mg/kg twice daily",37.4 ± 0.9%
same,% parasitemia (mean ± SEM),"P. yoelii strain YM; D + 6, i.p. 40 mg/kg twice daily",55.8 ± 1.5%
same,% parasitemia (mean ± SEM),"P. yoelii strain YM; D + 8, i.p. 20 mg/kg twice daily",0.8 ± 0.2%
same,% parasitemia (mean ± SEM),"P. yoelii strain YM; D + 8, i.p. 30 mg/kg twice daily",67.2 ± 0.9%
same,mortality (no. of dead mice/total no. of tested mice),"P. yoelii strain YM; D + 8, i.p. 40 mg/kg twice daily to D + 5",(2/5)
same,% parasitemia (mean ± SEM),"P. yoelii strain YM; D + 8, i.p. 40 mg/kg twice daily",83 ± 2.1%
same,% parasitemia (mean ± SEM),"P. yoelii strain YM; D + 10, i.p. 20 mg/kg twice daily",14.3 ± 4.0%
same,mortality (no. of dead mice/total no. of tested mice),"P. yoelii strain YM; D + 10, i.p. 30 mg/kg twice daily to D + 5",(5/5)
same,mortality (no. of dead mice/total no. of tested mice),"P. yoelii strain YM; D + 10, i.p. 40 mg/kg twice daily to D + 5",(5/5)
same,% parasitemia (mean ± SEM),"P. yoelii strain YM; D + 12, i.p. 20 mg/kg twice daily",32.4 ± 4.0%
same,mortality (no. of dead mice/total no. of tested mice),"P. yoelii strain YM; D + 14, i.p. 20 mg/kg twice daily to D + 5",3/5
same,% parasitemia (mean ± SEM),"P. yoelii strain YM; D + 14, i.p. 20 mg/kg twice daily",7%
same,mortality (no. of dead mice/total no. of tested mice),"P. yoelii strain YM; D + 16, i.p. 20 mg/kg twice daily to D + 5",3/5
same,% parasitemia (mean ± SEM),"P. yoelii strain YM; D + 16, i.p. 20 mg/kg twice daily",0%
"COCOc1ccc(C(=O)/C=C/c2ccc(OC)cc2OC)cc1 [2,4-Dimethoxy-4′-methoxymethoxychalcone, 2,4-dimethoxy-4′-methoxymethoxychalcone]",Growth in % of control (mean ± SEM),[1]; 0.5 μg/ml,14.0 ± 6.8%
same,Growth in % of control (mean ± SEM),[1]; 1 μg/ml,0 ± 10.9%
same,Growth in % of control (mean ± SEM),[1]; 5 μg/ml,0 ± 10.2%
same,Growth in % of control (mean ± SEM),[1]; 10 μg/ml,40.8 ± 9.3%
"COc1ccc(OC)c(/C=C/C(=O)c2ccc(O)cc2)c1 [2,5-Dimethoxy-4′-hydroxychalcone]",Growth in % of control (mean ± SEM),[1]; 0.5 μg/ml,14 ± 75%
same,Growth in % of control (mean ± SEM),[1]; 1 μg/ml,21.2 ± 11.1%
same,Growth in % of control (mean ± SEM),[1]; 5 μg/ml,68.4 ± 6.8%
same,Growth in % of control (mean ± SEM),[1]; 10 μg/ml,92.5 ± 2.4%
"COc1ccc(OC)c(/C=C/C(=O)c2ccccc2)c1 [2,5-Dimethoxychalcone]",Growth in % of control (mean ± SEM),[1]; 0.5 μg/ml,11 ± 7.7%
same,Growth in % of control (mean ± SEM),[1]; 1 μg/ml,5.5 ± 5.1%
same,Growth in % of control (mean ± SEM),[1]; 5 μg/ml,27.1 ± 5.3%
same,Growth in % of control (mean ± SEM),[1]; 10 μg/ml,58.8 ± 6.4%
"C=CCOc1ccc(C(=O)/C=C/c2ccc(OC)c(OC)c2)cc1 [3,4-Dimethoxy-4′-allyloxychalcone, 3,4-dimethoxy-4′-prop-2-enyloxychalcone]",Growth in % of control (mean ± SEM),[1]; 0.5 μg/ml,0 ± 11.3%
same,Growth in % of control (mean ± SEM),[1]; 1 μg/ml,9.4 ± 15.8%
same,Growth in % of control (mean ± SEM),[1]; 5 μg/ml,16.2 ± 5.5%
same,Growth in % of control (mean ± SEM),[1]; 10 μg/ml,52.8 ± 4.7%
"C=CCOc1ccc(C(=O)/C=C/c2cc(OC)cc(OC)c2)cc1 [3,5-Dimethoxy-4′-allylchalcone, 3,5-dimethoxy-4′-prop-2-enyloxychalcone]",Growth in % of control (mean ± SEM),[1]; 0.5 μg/ml,9.1 ± 5.2%
same,Growth in % of control (mean ± SEM),[1]; 1 μg/ml,3.4 ± 4.7%
same,Growth in % of control (mean ± SEM),[1]; 5 μg/ml,44 ± 8.1%
same,Growth in % of control (mean ± SEM),[1]; 10 μg/ml,79.1 ± 10.5%
O=C(/C=C/c1ccc(O)cc1)c1ccc(O)cc1 [drawing 63],inhibition at 10 µg/mL,L. major promastigotes,53.1 ± 7.9%
same,inhibition at 0.5 µg/mL,L. major promastigotes; Table 14.1,22.5 ± 10%
same,inhibition at 1 µg/mL,L. major promastigotes; Table 14.1,26.6 ± 7.6%
same,inhibition at 5 µg/mL,L. major promastigotes; Table 14.1,34.6 ± 10.5%
same,inhibition at 0.5 µg/mL,human lymphocytes; [2],0%
same,inhibition at 1 µg/mL,human lymphocytes; [2],0%
same,inhibition at 5 µg/mL,human lymphocytes; [2],96.3%
same,inhibition at 10 µg/mL,"human lymphocytes; read-out: inhibition of lymphocytes (lower figure), response to PHA, 10 μg/ml",94.8%
COc1ccc(C(=O)/C=C/c2ccccc2)cc1 [drawing 66],inhibition at 0.5 µg/mL,L. major promastigotes; Table 14.1,20.6%
same,inhibition at 1 µg/mL,L. major promastigotes; Table 14.1,26.3%
same,inhibition at 5 µg/mL,L. major promastigotes; Table 14.1,68.1%
same,inhibition at 10 µg/mL,"L. major promastigotes; Table 14.1, 10 μg/ml",85.5%
same,inhibition at 0.5 µg/mL,human lymphocytes; [2],2%
same,inhibition at 1 µg/mL,human lymphocytes; [2],7.5%
same,inhibition at 5 µg/mL,human lymphocytes; [2],91%
same,inhibition at 10 µg/mL,human lymphocytes; [2],100%
COc1cccc(/C=C/C(=O)c2ccc(O)cc2)c1OC [drawing 69],inhibition at 0.5 µg/mL,L. major promastigotes; Table 14.1,32%
same,inhibition at 1 µg/mL,L. major promastigotes; Table 14.1,43%
same,inhibition at 5 µg/mL,L. major promastigotes; Table 14.1,95.2 ± 4.7%
same,inhibition at 10 µg/mL,"L. major promastigotes; Table 14.1, 10 μg/ml",97.1 ± 3.5%
same,inhibition at 0.5 µg/mL,human lymphocytes; [2],2%
same,inhibition at 1 µg/mL,human lymphocytes; [2],7.5%
same,inhibition at 5 µg/mL,human lymphocytes; [2],89.3%
same,inhibition at 10 µg/mL,human lymphocytes; [2],99.8%
COc1cc(/C=C/C(=O)c2ccc(O)cc2O)ccc1O [drawing 74],inhibition at 0.5 µg/mL,L. major promastigotes; Table 14.1,7.8%
same,inhibition at 1 µg/mL,L. major promastigotes; Table 14.1,14.3%
same,inhibition at 5 µg/mL,L. major promastigotes; Table 14.1,56.7%
same,inhibition at 10 µg/mL,"L. major promastigotes; Table 14.1, 10 μg/ml",83.3%
same,inhibition at 0.5 µg/mL,human lymphocytes; [2],2%
same,inhibition at 1 µg/mL,human lymphocytes; [2],6%
same,inhibition at 5 µg/mL,human lymphocytes; [2],9.5%
same,inhibition at 10 µg/mL,human lymphocytes; [2],38.3%
COCOc1ccc(C(=O)/C=C/c2ccc(OC)cc2OC)cc1 [drawing 90],inhibition at 0.5 µg/mL,L. major promastigotes; Table 14.1,22.8 ± 9.7%
same,inhibition at 1 µg/mL,L. major promastigotes; Table 14.1,27.6 ± 10.9%
same,inhibition at 5 µg/mL,L. major promastigotes; Table 14.1,50.2 ± 13%
same,inhibition at 10 µg/mL,"L. major promastigotes; Table 14.1, 10 μg/ml",65.4 ± 16.1%
same,inhibition at 0.5 µg/mL,human lymphocytes; [2],0%
same,inhibition at 1 µg/mL,human lymphocytes; [2],5.1%
same,inhibition at 5 µg/mL,human lymphocytes; [2],11.2%
same,inhibition at 10 µg/mL,human lymphocytes; [2],15.4%
COc1ccc(CCC(=O)c2ccc(O)cc2)c(OC)c1 [drawing 92],inhibition at 0.5 µg/mL,L. major promastigotes; Table 14.1,8.5 ± 1.8%
same,inhibition at 1 µg/mL,L. major promastigotes; Table 14.1,5.6 ± 5.4%
same,inhibition at 5 µg/mL,L. major promastigotes; Table 14.1,22.5 ± 9.7%
same,inhibition at 10 µg/mL,"L. major promastigotes; Table 14.1, 10 μg/ml",31.3 ± 16%
same,inhibition at 0.5 µg/mL,human lymphocytes; [2],0%
same,inhibition at 1 µg/mL,human lymphocytes; [2],0%
same,inhibition at 5 µg/mL,human lymphocytes; [2],3%
same,inhibition at 10 µg/mL,human lymphocytes; [2],1.5%
